Measurements as given in patent publication US20240425464A1, “Substituted Monohydrazides as Potent Antifungal Agents” (University of Kentucky Research Foundation, priority 2023, published 2024).
Converted amounts (≈) assume the structure as drawn. Like-named read-outs stand apart in the source and are kept apart here.

Assays:
Test in all cases: MIC determination by in vitro antifungal assay
[1] = system: C. albicans ATCC 64124 (B); type: cell-based, Candida albicans
Method in brief: (§1)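 Broth microdilution following CLSI M27-A3/M38-A2 with minor modifications, in RPMI 1640 buffered to pH 7.0 with 0.165 M MOPS. Yeast inoculum came from an overnight YPD culture, set to OD600 0.12 (˜1×10^6 CFU/mL) and then diluted 1:100. Compounds were tested in two-fold dilutions at 0.06-31.3 μg/mL for 48 h at 35° C.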

[2] = system: C. albicans ATCC 90819 (D); type: cell-based, Candida albicans
Method in brief: as §1

[3] = system: C. albicans ATCC MYA-1003 (G); type: cell-based, Candida albicans; settings: strain G = C. albicans ATCC MYA-1063(R) (footnote), MYA-1003 in text
Method in brief: as §1

[4] = system: C. albicans ATCC MYA-1237 (F); type: cell-based, Candida albicans; settings: strain F = C. albicans ATCC MYA-1237(R)
Method in brief: as §1

[5] = system: C. albicans ATCC MYA-2310 (E); type: cell-based, Candida albicans; settings: strain E = C. albicans ATCC MYA-2310
Method in brief: as §1

[6] = system: C. albicans ATCC MYA-2876 (C); type: cell-based, Candida albicans; settings: strain C = C. albicans ATCC MYA-2876(S)
Method in brief: as §1

[7] = system: Aspergillus terreus ATCC MYA-3633 (N); type: cell-based; settings: strain N = A. terreus ATCC MYA-3633
Method in brief: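 Fungi are exposed to compounds (0.06-31.3 μg/mL, double dilution) in RPMI 1640 adjusted to pH 7.0 with MOPS. Incubation runs 48 h at 35° C, based on CLSI M27-A3/M38-A2. Yeast suspensions start at ˜1×10^6 CFU/mL and are diluted 1:100.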

[8] = Candida albicans, ATCC64124, strain B = C. albicans ATCC 64124, read-out: MIC
[9] = Candida albicans, ATCC90819, strain D = C. albicans ATCC 90819(R), read-out: MIC
[10] = Candida albicans, read-out: MIC
[11] = Aspergillus terreus, read-out: MIC
[12] = strain B = C. albicans ATCC 64124
[13] = strain D = C. albicans ATCC 90819(R)

SMILES	MIC [1, 8] [µg/mL]	MIC [2, 9] [µg/mL]	MIC [3, 10] [µg/mL]	MIC [4, 10] [µg/mL]	MIC [5, 10] [µg/mL]	MIC [6, 10] [µg/mL]	MIC [7, 11] [µg/mL]	MIC [1, 12] [μg/mL^−1]	MIC [2, 13] [μg/mL^−1]	MIC [3] [μg/mL^−1]	MIC [4] [μg/mL^−1]	MIC [5] [μg/mL^−1]	MIC [6] [μg/mL^−1]	MIC [7] [μg/mL^−1]
O=C(NNc1ccc(F)cc1)c1nc(F)ccc1F [Compound 8d]	0.98 (≈ 3.67 µM)	0.98 (≈ 3.67 µM)	0.49 (≈ 1.83 µM)	0.98 (≈ 3.67 µM)	0.98 (≈ 3.67 µM)	0.98 (≈ 3.67 µM)	1.95 (≈ 7.3 µM)	–	–	–	–	–	–	–
O=C(NNc1ccc(Cl)cc1)c1nc(F)ccc1F [Compound 8e]	–	–	–	–	–	–	–	7.8	7.8	3.9	>31.3	3.9	3.9	>31.3
COc1ccc(NNC(=O)c2nc(F)ccc2F)cc1 [Compound 8f]	1.95 (≈ 6.98 µM)	1.95 (≈ 6.98 µM)	0.98 (≈ 3.51 µM)	0.98 (≈ 3.51 µM)	1.95 (≈ 6.98 µM)	1.95 (≈ 6.98 µM)	31.3 (≈ 112 µM)	–	–	–	–	–	–	–
O=C(NNc1ccc(F)cc1F)c1nc(F)ccc1F [Compound 8g]	1.95 (≈ 6.84 µM)	3.9 (≈ 13.7 µM)	0.98 (≈ 3.44 µM)	1.95 (≈ 6.84 µM)	1.95 (≈ 6.84 µM)	1.95 (≈ 6.84 µM)	31.3 (≈ 110 µM)	–	–	–	–	–	–	–
O=C(NNc1cccc(F)c1)c1cnccn1 [Compound 9a]	–	–	–	–	–	–	–	1.95	0.98	0.98	0.98	7.8	3.9	0.98
O=C(NNc1cccc(Cl)c1)c1cnccn1 [Compound 9b]	1.95 (≈ 7.84 µM)	3.9 (≈ 15.7 µM)	0.98 (≈ 3.94 µM)	0.98 (≈ 3.94 µM)	7.8 (≈ 31.4 µM)	1.95 (≈ 7.84 µM)	0.98 (≈ 3.94 µM)	–	–	–	–	–	–	–
COc1cccc(NNC(=O)c2cnccn2)c1 [Compound 9c]	0.98 (≈ 4.01 µM)	1.95 (≈ 7.98 µM)	0.98 (≈ 4.01 µM)	1.95 (≈ 7.98 µM)	1.95 (≈ 7.98 µM)	1.95 (≈ 7.98 µM)	1.95 (≈ 7.98 µM)	–	–	–	–	–	–	–
O=C(NNc1ccc(F)cc1)c1cnccn1 [Compound 9d]	1.98 (≈ 8.53 µM)	0.98 (≈ 4.22 µM)	1.95 (≈ 8.4 µM)	0.98 (≈ 4.22 µM)	7.8 (≈ 33.6 µM)	7.8 (≈ 33.6 µM)	1.95 (≈ 8.4 µM)	–	–	–	–	–	–	–
O=C(NNc1ccc(Cl)cc1)c1cnccn1 [Compound 9e]	–	–	–	–	–	–	–	1.95	0.98	1.95	0.98	1.95	3.9	7.8
COc1ccc(NNC(=O)c2cnccn2)cc1 [Compound 9f]	0.98 (≈ 4.01 µM)	0.98 (≈ 4.01 µM)	1.95 (≈ 7.98 µM)	0.98 (≈ 4.01 µM)	1.95 (≈ 7.98 µM)	1.95 (≈ 7.98 µM)	> 31.3	–	–	–	–	–	–	–
O=C(NNc1ccc(F)cc1F)c1cnccn1 [Compound 9g]	0.98 (≈ 3.92 µM)	0.98 (≈ 3.92 µM)	0.49 (≈ 1.96 µM)	0.49 (≈ 1.96 µM)	3.9 (≈ 15.6 µM)	0.98 (≈ 3.92 µM)	0.98 (≈ 3.92 µM)	–	–	–	–	–	–	–
O=C(NNc1cc(F)ccc1F)c1cnccn1 [Compound 9h]	7.8 (≈ 31.2 µM)	3.9 (≈ 15.6 µM)	1.95 (≈ 7.79 µM)	3.9 (≈ 15.6 µM)	> 31.3	3.9 (≈ 15.6 µM)	1.95 (≈ 7.79 µM)	–	–	–	–	–	–	–
O=C(NNc1cc(F)cc(F)c1)c1cnccn1 [Compound 9i]	3.9 (≈ 15.6 µM)	3.9 (≈ 15.6 µM)	1.95 (≈ 7.79 µM)	1.95 (≈ 7.79 µM)	15.6 (≈ 62.3 µM)	7.8 (≈ 31.2 µM)	1.95 (≈ 7.79 µM)	–	–	–	–	–	–	–
O=C(NNc1cc(Cl)cc(Cl)c1)c1cnccn1 [Compound 9j]	3.9 (≈ 13.8 µM)	1.95 (≈ 6.89 µM)	3.9 (≈ 13.8 µM)	1.95 (≈ 6.89 µM)	7.8 (≈ 27.6 µM)	3.9 (≈ 13.8 µM)	3.9 (≈ 13.8 µM)	–	–	–	–	–	–	–
